Measured values from PubChem BioAssay AID256 (DTP/NCI, 2004).
“And” between values parts separate entries of the source, which are not always exact repeats. Equal values may be shown once. Inconclusive results and toxic doses are left out. The calls were made as follows: active = survival T/C of 150% or more; inactive = T/C below 125% in these data.

System: CD2F1 mice, L1210 leukemia ip, survival T/C
Assay: NCI In Vivo Anticancer Drug Screen. Data for tumor model L1210 Leukemia (intraperitoneal) in CD2F1 (CDF1) mice
Details: higher = longer survival
Method in brief: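 Activity against a transplanted murine tumor was judged by comparing the compound group with a vehicle group. The outcome in the treated animals was divided by that in the controls.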

[1] = endpoint: mean survival time, dose: 100.0 mg/kg/injection, schedule: Q01DX009 (ip), vehicle: saline with Tween-80
[2] = endpoint: mean survival time, dose: 200.0 mg/kg/injection, schedule: Q01DX009 (ip), vehicle: saline with Tween-80
[3] = endpoint: mean survival time, dose: 100.0 mg/kg/injection, schedule: Q01DX009 (ip), vehicle: saline
[4] = endpoint: mean survival time, dose: 100.0 mg/kg/injection, schedule: Q04DX003 (ip), vehicle: saline with Tween-80
[5] = endpoint: mean survival time, dose: 200.0 mg/kg/injection, schedule: Q04DX003 (ip), vehicle: saline with Tween-80

Measured: T/C

CC(C)(C#N)N1CCCCC1
inactive: endpoint: mean survival time, dose: 1.25 mg/kg/injection, schedule: Q01DX009 (ip), vehicle: saline with Tween-80 107 % of control | endpoint: mean survival time, dose: 2.5 mg/kg/injection, schedule: Q01DX009 (ip), vehicle: saline with Tween-80 104 % of control | endpoint: mean survival time, dose: 5.0 mg/kg/injection, schedule: Q01DX009 (ip), vehicle: saline with Tween-80 98 % of control | endpoint: mean survival time, dose: 5.0 mg/kg/injection, schedule: Q04DX003 (ip), vehicle: saline 101 % of control

CCC[CH2][Sn](=[S])[CH2]CCC
inactive: endpoint: mean survival time, dose: 0.39 mg/kg/injection, schedule: Q01DX009 (ip), vehicle: other 102 % of control | endpoint: mean survival time, dose: 0.78 mg/kg/injection, schedule: Q01DX009 (ip), vehicle: other 100 % of control | endpoint: mean survival time, dose: 1.56 mg/kg/injection, schedule: Q01DX009 (ip), vehicle: other 107 % of control | endpoint: mean survival time, dose: 6.25 mg/kg/injection, schedule: Q04DX003 (ip), vehicle: other 103 % of control | endpoint: mean survival time, dose: 12.5 mg/kg/injection, schedule: Q04DX003 (ip), vehicle: other 103 % of control

O=C(Nc1cc([N+](=O)[O-])ccc1F)N(CCO)C1CCCCC1
inactive: [1] 98 % of control | [2] 98 % of control | endpoint: mean survival time, dose: 400.0 mg/kg/injection, schedule: Q01DX009 (ip), vehicle: saline with Tween-80 103 % of control

NC1CCCCC1.[O]=[Cr](=[O])([OH])[OH]
inactive: endpoint: mean survival time, dose: 6.25 mg/kg/injection, schedule: Q04DX003 (ip), vehicle: saline 103 % of control | endpoint: mean survival time, dose: 12.5 mg/kg/injection, schedule: Q04DX003 (ip), vehicle: saline 98 % of control | endpoint: mean survival time, dose: 25.0 mg/kg/injection, schedule: Q04DX003 (ip), vehicle: saline 110 % of control

N[C@@H](Cc1c[nH]c2ccccc12)C(=O)Nc1nncs1
inactive: endpoint: median survival time, dose: 8.35 mg/kg/injection, schedule: Q03HX027 (ip), vehicle: saline 96 % of control | endpoint: median survival time, dose: 16.7 mg/kg/injection, schedule: Q03HX027 (ip), vehicle: saline 100 % of control | endpoint: median survival time, dose: 33.4 mg/kg/injection, schedule: Q03HX027 (ip), vehicle: saline 103 % of control | endpoint: median survival time, dose: 47.88 mg/kg/injection, schedule: Q03HX027 (ip), vehicle: saline 107 % of control | endpoint: median survival time, dose: 48.0 mg/kg/injection, schedule: Q03HX027 (ip), vehicle: saline 108 % of control | endpoint: median survival time, dose: 50.0 mg/kg/injection, schedule: Q01DX009 (ip), vehicle: saline 98 % of control | endpoint: median survival time, dose: 66.7 mg/kg/injection, schedule: Q03HX027 (ip), vehicle: saline 103 % of control | endpoint: median survival time, dose: 79.8 mg/kg/injection, schedule: Q03HX027 (ip), vehicle: saline 113 % of control | endpoint: median survival time, dose: 79.92 mg/kg/injection, schedule: Q03HX027 (ip), vehicle: saline 113 % of control | endpoint: median survival time, dose: 100.0 mg/kg/injection, schedule: Q01DX009 (ip), vehicle: saline 97 % of control | endpoint: median survival time, dose: 133.2 mg/kg/injection, schedule: Q03HX027 (ip), vehicle: saline 116 % of control | endpoint: median survival time, dose: 200.0 mg/kg/injection, schedule: Q01DX009 (ip), vehicle: saline 105 % of control | endpoint: median survival time, dose: 222.0 mg/kg/injection, schedule: Q03HX027 (ip), vehicle: saline 116 % of control | endpoint: median survival time, dose: 369.45 mg/kg/injection, schedule: Q03HX027 (ip), vehicle: saline 87 % of control | endpoint: median survival time, dose: 400.0 mg/kg/injection, schedule: Q01DX009 (ip), vehicle: saline 120 % of control

COc1ccc(NC(=O)Nc2c(Oc3ccc(Cl)cc3)ccc(Cl)c2S(=O)(=O)O)cc1Cl
inactive: endpoint: mean survival time, dose: 50.0 mg/kg/injection, schedule: Q01DX009 (ip), vehicle: saline 98 % of control | [3] 87 % of control | [4] 93 % of control | [5] 91 % of control

O=C(Sc1ccccc1)C(CO)c1ccccc1 (configuration not stated)
inactive: endpoint: mean survival time, dose: 25.0 mg/kg/injection, schedule: Q04DX002 (ip), vehicle: saline with Tween-80 101 % of control | endpoint: mean survival time, dose: 50.0 mg/kg/injection, schedule: Q04DX002 (ip), vehicle: saline with Tween-80 101 % of control | endpoint: mean survival time, dose: 100.0 mg/kg/injection, schedule: Q04DX002 (ip), vehicle: saline with Tween-80 97 % of control

Cc1ccccc1OS(=O)(=O)c1ccccc1
inactive: endpoint: mean survival time, dose: 100.0 mg/kg/injection, schedule: Q01DX009 (ip), vehicle: acetone 98 % of control | endpoint: mean survival time, dose: 100.0 mg/kg/injection, schedule: Q04DX003 (ip), vehicle: acetone 100 % of control | endpoint: mean survival time, dose: 200.0 mg/kg/injection, schedule: Q01DX009 (ip), vehicle: acetone 98 % of control | endpoint: mean survival time, dose: 200.0 mg/kg/injection, schedule: Q04DX003 (ip), vehicle: acetone 94 % of control | endpoint: mean survival time, dose: 400.0 mg/kg/injection, schedule: Q01DX009 (ip), vehicle: acetone 96 % of control | endpoint: mean survival time, dose: 400.0 mg/kg/injection, schedule: Q04DX003 (ip), vehicle: acetone 96 % of control

COc1cc2ccc3c[n+](C)ccc3c2cc1OC
inactive: endpoint: mean survival time, dose: 25.0 mg/kg/injection, schedule: Q01DX009 (ip), vehicle: water 102 % of control and 100 % of control | endpoint: mean survival time, dose: 50.0 mg/kg/injection, schedule: Q01DX009 (ip), vehicle: water 107 % of control and 104 % of control | endpoint: mean survival time, dose: 100.0 mg/kg/injection, schedule: Q01DX009 (ip), vehicle: water 94 % of control and 114 % of control

CCCC(=O)Nc1ccc([N+](=O)[O-])cc1OC
inactive: [4] 96 % of control | [5] 102 % of control | endpoint: mean survival time, dose: 400.0 mg/kg/injection, schedule: Q04DX003 (ip), vehicle: saline with Tween-80 104 % of control

Nc1ccc2ccc(O)cc2c1
inactive: [3] 97 % of control | endpoint: mean survival time, dose: 100.0 mg/kg/injection, schedule: Q04DX003 (ip), vehicle: saline 103 % of control | endpoint: mean survival time, dose: 200.0 mg/kg/injection, schedule: Q04DX003 (ip), vehicle: saline 108 % of control

COC1OC(CO)C(n2cnc3c2c(=O)n(C)c(=O)n3C)C=C1NC(C)=O (configuration not stated)
inactive: endpoint: mean survival time, dose: 12.5 mg/kg/injection, schedule: Q01DX005 (ip), vehicle: distilled water + Tween-80 100 % of control | endpoint: mean survival time, dose: 12.5 mg/kg/injection, schedule: Q01DX005 (ip), vehicle: water 88 % of control | endpoint: mean survival time, dose: 25.0 mg/kg/injection, schedule: Q01DX005 (ip), vehicle: distilled water + Tween-80 96 % of control | endpoint: mean survival time, dose: 25.0 mg/kg/injection, schedule: Q01DX005 (ip), vehicle: water 96 % of control | endpoint: mean survival time, dose: 50.0 mg/kg/injection, schedule: Q01DX005 (ip), vehicle: water 92 % of control | endpoint: mean survival time, dose: 100.0 mg/kg/injection, schedule: Q01DX005 (ip), vehicle: distilled water + Tween-80 92 % of control | endpoint: mean survival time, dose: 100.0 mg/kg/injection, schedule: Q01DX005 (ip), vehicle: water 103 % of control | endpoint: mean survival time, dose: 200.0 mg/kg/injection, schedule: Q01DX005 (ip), vehicle: distilled water + Tween-80 100 % of control | endpoint: mean survival time, dose: 200.0 mg/kg/injection, schedule: Q01DX005 (ip), vehicle: water 96 % of control

ON=C1c2cc(Br)ccc2-c2ccc(Br)cc21
inactive: endpoint: mean survival time, dose: 50.0 mg/kg/injection, schedule: Q01DX001 (ip), vehicle: carboxymethylcellulose (CMC) 104 % of control | endpoint: mean survival time, dose: 100.0 mg/kg/injection, schedule: Q01DX001 (ip), vehicle: carboxymethylcellulose (CMC) 102 % of control | endpoint: mean survival time, dose: 200.0 mg/kg/injection, schedule: Q01DX001 (ip), vehicle: carboxymethylcellulose (CMC) 98 % of control | endpoint: mean survival time, dose: 400.0 mg/kg/injection, schedule: Q01DX001 (ip), vehicle: carboxymethylcellulose (CMC) 102 % of control

NC(=S)/N=C\C(CC(O)C(O)C(O)CO)=N\NC(N)=S (configuration not stated)
inactive: endpoint: mean survival time, dose: 6.25 mg/kg/injection, schedule: Q01DX009 (ip), vehicle: saline with Tween-80 96 % of control | endpoint: mean survival time, dose: 12.5 mg/kg/injection, schedule: Q01DX009 (ip), vehicle: saline with Tween-80 96 % of control | endpoint: mean survival time, dose: 25.0 mg/kg/injection, schedule: Q01DX009 (ip), vehicle: saline with Tween-80 95 % of control and 100 % of control | endpoint: mean survival time, dose: 50.0 mg/kg/injection, schedule: Q01DX009 (ip), vehicle: saline with Tween-80 93 % of control and 101 % of control | [1] 101 % of control | [2] 86 % of control

CCN1CC2c3cc(OC)c(OC)cc3CC(c3ccccc3)C2C1 (configuration not stated)
inactive: endpoint: mean survival time, dose: 12.5 mg/kg/injection, schedule: Q04DX003 (ip), vehicle: saline with Tween-80 108 % of control | endpoint: mean survival time, dose: 25.0 mg/kg/injection, schedule: Q04DX003 (ip), vehicle: saline with Tween-80 104 % of control | endpoint: mean survival time, dose: 50.0 mg/kg/injection, schedule: Q04DX003 (ip), vehicle: saline with Tween-80 92 % of control

COc1cc2c(cc1OC)C(Cc1ccc(NC(=O)c3ccc(C(=O)Nc4ccc(CC5c6cc(OC)c(OC)cc6CCN5C)cc4)cc3)cc1)N(C)CC2 (configuration not stated)
inactive: endpoint: mean survival time, dose: 100.0 mg/kg/injection, schedule: Q01DX001 (ip), vehicle: other 107 % of control | endpoint: mean survival time, dose: 200.0 mg/kg/injection, schedule: Q01DX001 (ip), vehicle: other 101 % of control | endpoint: mean survival time, dose: 400.0 mg/kg/injection, schedule: Q01DX001 (ip), vehicle: other 103 % of control
